Measurements reported in patent publication US8933233B2, “1,3,4-oxadiazole and 1,3,4-thiadiazole β-lactamase inhibitors” (priority 2012, dated 2015).
Counter-ions that a name gives are not always drawn.

Tests used:
[1] = test system: bacterial strains that express the class D cephalosporinase OXA-15; assay: Synergy MIC / standard BLI potentiation MIC assay, strains expressing OXA-15; type: cell-based, E. coli; details: in presence of a β-lactam; comparator Avibactam (CCC)
Description: (§1) Unless otherwise indicated, the activity of the BLI compounds can be described by the MIC value obtained from a Synergy MIC assay or a BLI potentiation assay (e.g as described herein), both of which are run in the presence of a β-lactam.
(§2) The experimental protocol was performed according to Clinical and Laboratory Standards Institute (CLSI) guidelines with modifications as described below (CLSI guidelines can be derived from the CLSI document M07-A9 published in January 2012: “Methods for Dilution Antimicrobial Susceptibility Tests for Bacteria That Grow Aerobically; Approved Standard-Ninth Edition”).
(§3) To prepare for MIC testing, frozen glycerol stocks of clinical isolates (Klebsiella pneumoniae, Eschericia coli, Enterobacter spp, Citrobacter spp, or Pseudomonas aeruginosa) were used to streak for isolated colonies on rich, non-selective, tryptic soy agar containing 5% sheep's blood (TSAB). Frozen glycerol stocks of laboratory engineered, isogenic E. coli strains, which contain cloned β-lactamase expressing plasmids were used to streak for isolated colonies on rich, selective LB agar supplemented with 25 μg/mL tetracycline to maintain the plasmid. All strains were incubated at 37° C. for 18-24 hrs.
(§4) On the day of testing, primary cultures were started by scraping off 5-10 colonies from the TSAB plates containing clinical strains or the tetracycline supplemented LB plates containing engineered strains. The clinical strain material was suspended in ˜5 mL of cation adjusted Mueller Hinton Broth (CAMHB) in 14 mL culture tubes. The engineered strain material was suspended in CAMHB (supplemented with 25 μg/mL tetracycline) in 14 mL culture tubes. All strains were incubated at 37° C. with aeration (200 rpm) for ˜2 hrs until the optical density at 600 nm (OD600) was ≧0.1.
(§5) The two compound components of the assay were each diluted in CAMHB and added to the 96-well broth microdilution assay plates. 50 μL of the β-lactam was added to each well of the assay plate in 2-fold dilutions with final concentrations ranging from 128 to 0.13 μg/mL. 25 μL of the BLI compound was added to all wells in the broth microdilution plates at a final concentration of 4 μg/mL. Inoculum cultures were prepared by standardizing the primary cultures to OD600=0.1 and then adding 20 μL of the adjusted primary culture per 1 mL CAMHB for clinical strains or CAMHB (supplemented with tetracycline at 100 μg/mL) for engineered strains, so that the final inoculum density was ˜10^5 colony forming units per milliliter. Diluted inoculum cultures were used to inoculate 25 μL per well in 96-well broth microdilution assay plates. The final volume of each well was 100 μL and contained a β-lactam at different concentrations, a BLIcompound at 4 μg/mL concentration, the bacterial culture at an OD600 of approximately 0.001 and when necessary tetracycline at 25 μg/mL.
(§6) Plates were incubated for 18-20 hours at 37° C. with aeration (200 rpm). Following incubation, growth was confirmed visually placing plates over a viewing apparatus (stand with a mirror underneath) and then OD600 was measured using a SpectraMax 340PC384 plate reader (Molecular Devices, Sunnyvale, Calif.). Growth was defined as turbidity that could be detected with the naked eye or achieving minimum OD600 of 0.1. MIC values were defined as the lowest concentration producing no visible turbidity.
(§7) The synergy MIC (sMIC) assay determines the concentration of the BLI required to potentiate the activity of a fixed concentration of a β-lactam antibiotic against β-lactamase producing bacterial strains. The experimental protocol was performed according to Clinical and Laboratory Standards Institute (CLSI) guidelines with modifications as described below (CLSI guidelines can be derived from the CLSI document M07-A9 published in January 2012: “Methods for Dilution Antimicrobial Susceptibility Tests for Bacteria That Grow Aerobically; Approved Standard-Ninth Edition”). […]

[2] = test system: bacterial strains that express KPC β-lactamases; assay: Synergy MIC / standard BLI potentiation MIC assay, strains expressing KPC β-lactamases; type: cell-based, isogenic E. coli and clinical isolates; details: more active for at least one KPC strain and/or better spectrum; comparator Avibactam
Description: as §1, §2, §3, §4, §5, §6, §7

SMILES	activity against bacterial strains that express OXA-15, compared with Avibactam [1]	activity and/or spectrum of activity against bacterial strains that express KPC β-lactamases, compared with Avibactam [2]
O=C1N2C[C@@H](CC[C@H]2c2nnc([C@H]3CCNC3)o2)N1OS(=O)(=O)O [Compound 758, (2S,5R)-7-oxo-2-(5-((S)-pyrrolidin-3-yl)-1,3,4-oxadiazol-2-yl)-1,6-diazabicyclo[3.2.1]octan-6-yl hydrogen sulfate]	more active than Avibactam	more active than Avibactam
N[C@@H]1CN[C@H](c2nnc([C@@H]3CC[C@@H]4CN3C(=O)N4OS(=O)(=O)O)o2)C1 [Compound 760, (2S,5R)-2-(5-((2S,4S)-4-aminopyrrolidin-2-yl)-1,3,4-oxadiazol-2-yl)-7-oxo-1,6-diazabicyclo[3.2.1]octan-6-yl hydrogen sulfate]	more active than Avibactam	more active than Avibactam
N=C(N)N1CC(c2nnc([C@@H]3CC[C@@H]4CN3C(=O)N4OS(=O)(=O)O)o2)C1 [Compound 709, (2S,5R)-2-(5-(1-carbamimidoylazetidin-3-yl)-1,3,4-oxadiazol-2-yl)-7-oxo-1,6-diazabicyclo[3.2.1]octan-6-yl hydrogen sulfate]	more active than Avibactam	more active than Avibactam
O=C1N2C[C@@H](CC[C@H]2c2nnc(CCNC3CCNCC3)o2)N1OS(=O)(=O)O [Compound 770, (2S,5R)-7-oxo-2-(5-(2-(piperidin-4-ylamino)ethyl)-1,3,4-oxadiazol-2-yl)-1,6-diazabicyclo[3.2.1]octan-6-yl hydrogen sulfate]	more active than Avibactam	more active than Avibactam
NC1CCN(Cc2nnc([C@@H]3CC[C@@H]4CN3C(=O)N4OS(=O)(=O)O)o2)CC1 [Compound 774, (2S,5R)-2-(5-((4-aminopiperidin-1-yl)methyl)-1,3,4-oxadiazol-2-yl)-7-oxo-1,6-diazabicyclo[3.2.1]octan-6-yl hydrogen sulfate]	more active than Avibactam	more active than Avibactam
O=C1N2C[C@@H](CC[C@H]2c2nnc(CCNCCO)o2)N1OS(=O)(=O)O [Compound 736, (2S,5R)-2-(5-(2-((2-hydroxyethyl)amino)ethyl)-1,3,4-oxadiazol-2-yl)-7-oxo-1,6-diazabicyclo[3.2.1]octan-6-yl hydrogen sulfate]	more active than Avibactam	more active than Avibactam
N[C@H]1CN[C@@H](c2nnc([C@@H]3CC[C@@H]4CN3C(=O)N4OS(=O)(=O)O)o2)C1 [Compound 761, (2S,5R)-2-(5-((2R,4R)-4-aminopyrrolidin-2-yl)-1,3,4-oxadiazol-2-yl)-7-oxo-1,6-diazabicyclo[3.2.1]octan-6-yl hydrogen sulfate]	more active than Avibactam	more active than Avibactam
O=C1N2C[C@@H](CC[C@H]2c2nnc(CCC3CNC3)o2)N1OS(=O)(=O)O [Compound 742, (2S,5R)-2-(5-(2-(azetidin-3-yl)ethyl)-1,3,4-oxadiazol-2-yl)-7-oxo-1,6-diazabicyclo[3.2.1]octan-6-yl hydrogen sulfate]	more active than Avibactam	more active than Avibactam
N[C@H]1C[C@H](CCc2nnc([C@@H]3CC[C@@H]4CN3C(=O)N4OS(=O)(=O)O)o2)C1 [Compound 753, (2S,5R)-2-(5-(2-((1r,3R)-3-aminocyclobutyl)ethyl)-1,3,4-oxadiazol-2-yl)-7-oxo-1,6-diazabicyclo[3.2.1]octan-6-yl hydrogen sulfate]	more active than Avibactam	more active than Avibactam
O=C1N2C[C@@H](CC[C@H]2c2nnc(C3CCNC3)o2)N1OS(=O)(=O)O (stereo partly drawn) [Compound 710, (2S,5R)-7-oxo-2-(5-(pyrrolidin-3-yl)-1,3,4-oxadiazol-2-yl)-1,6-diazabicyclo[3.2.1]octan-6-yl hydrogen sulfate]	more active than Avibactam	more active than Avibactam
O=C1N2C[C@@H](CC[C@H]2c2nnc(COC3CNC3)o2)N1OS(=O)(=O)O [Compound 744, (2S,5R)-2-(5-((azetidin-3-yloxy)methyl)-1,3,4-oxadiazol-2-yl)-7-oxo-1,6-diazabicyclo[3.2.1]octan-6-yl hydrogen sulfate]	more active than Avibactam	more active than Avibactam
NCCCc1nnc([C@@H]2CC[C@@H]3CN2C(=O)N3OS(=O)(=O)O)o1 [Compound 720, (2S,5R)-2-(5-(3-aminopropyl)-1,3,4-oxadiazol-2-yl)-7-oxo-1,6-diazabicyclo[3.2.1]octan-6-yl hydrogen sulfate]	more active than Avibactam	more active than Avibactam
NC(=O)c1nnc([C@@H]2CC[C@@H]3CN2C(=O)N3OS(=O)(=O)O)o1 [Compound 706, (2S,5R)-2-(5-carbamoyl-1,3,4-oxadiazol-2-yl)-7-oxo-1,6-diaza-bicyclo[3.2.1]octan-6-yl hydrogen sulfate]	more active than Avibactam	more active than Avibactam
O=C1N2C[C@@H](CC[C@H]2c2nnc(CCN3CCNCC3)o2)N1OS(=O)(=O)O [Compound 776, (2S,5R)-7-oxo-2-(5-(2-(piperazin-1-yl)ethyl)-1,3,4-oxadiazol-2-yl)-1,6-diazabicyclo[3.2.1]octan-6-yl hydrogen sulfate]	more active than Avibactam	more active than Avibactam
N[C@H]1C[C@@H](Cc2nnc([C@@H]3CC[C@@H]4CN3C(=O)N4OS(=O)(=O)O)o2)C1 [Compound 728, (2S,5R)-2-(5-(((1s,3R)-3-aminocyclobutyl)methyl)-1,3,4-oxadiazol-2-yl)-7-oxo-1,6-diazabicyclo[3.2.1]octan-6-yl hydrogen sulfate]	more active than Avibactam	more active than Avibactam
